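Five concentrations, 48 hours, 96-well plates. Definition used: TGI = concentration required for complete inhibition of growth.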
How the values were obtained:
Assay in all cases: NCI tumour cell line growth inhibition, 48 h
DMS 114 small cell lung = system: DMS 114 small cell lung
HOP-62 NSCLC = system: HOP-62 NSCLC
DMS 273 small cell lung = system: DMS 273 small cell lung
OVCAR-3 ovarian = system: OVCAR-3 ovarian
UACC-62 melanoma = system: UACC-62 melanoma
OVCAR-8 ovarian = system: OVCAR-8 ovarian
CCRF-CEM leukemia = system: CCRF-CEM leukemia
HCC-2998 colon = system: HCC-2998 colon
CAKI-1 renal = system: CAKI-1 renal
IGROV1 ovarian = system: IGROV1 ovarian
RXF 393 renal = system: RXF 393 renal
TK-10 renal = system: TK-10 renal
SNB-78 CNS = system: SNB-78 CNS
A498 renal = system: A498 renal
HOP-18 NSCLC = system: HOP-18 NSCLC
UACC-257 melanoma = system: UACC-257 melanoma
EKVX NSCLC = system: EKVX NSCLC
SK-MEL-28 melanoma = system: SK-MEL-28 melanoma
UO-31 renal = system: UO-31 renal
SN12C renal = system: SN12C renal
RXF-631 renal = system: RXF-631 renal
NCI-H23 lung = system: NCI-H23 lung
K-562 leukemia = system: K-562 leukemia
HCT-116 colon = system: HCT-116 colon
A549 NSCLC = system: A549 NSCLC
SF-295 CNS = system: SF-295 CNS
MOLT-4 leukemia = system: MOLT-4 leukemia
COLO 205 colon = system: COLO 205 colon
SK-OV-3 ovarian = system: SK-OV-3 ovarian
SNB-19 CNS = system: SNB-19 CNS
786-0 renal = system: 786-0 renal
M19-MEL melanoma = system: M19-MEL melanoma
HCT-15 colon = system: HCT-15 colon
HOP-92 NSCLC = system: HOP-92 NSCLC
SF-539 CNS = system: SF-539 CNS
LOX IMVI melanoma = system: LOX IMVI melanoma
SF-268 CNS = system: SF-268 CNS
HL-60(TB) leukemia = system: HL-60(TB) leukemia
KM12 colon = system: KM12 colon
SK-MEL-2 melanoma = system: SK-MEL-2 melanoma
SNB-75 CNS = system: SNB-75 CNS
OVCAR-4 ovarian = system: OVCAR-4 ovarian
OVCAR-5 ovarian = system: OVCAR-5 ovarian
NCI-H460 lung = system: NCI-H460 lung
SW-620 colon = system: SW-620 colon
NCI-H226 lung = system: NCI-H226 lung
M14 melanoma = system: M14 melanoma
ACHN renal = system: ACHN renal
SK-MEL-5 melanoma = system: SK-MEL-5 melanoma
HT29 colon = system: HT29 colon
DLD-1 colon = system: DLD-1 colon
U251 CNS = system: U251 CNS
XF 498 CNS = system: XF 498 CNS
MALME-3M melanoma = system: MALME-3M melanoma
LXFL 529 NSCLC = system: LXFL 529 NSCLC
KM20L2 colon = system: KM20L2 colon
NCI-H522 lung = system: NCI-H522 lung
RPMI-8226 leukemia = system: RPMI-8226 leukemia
SR leukemia = system: SR leukemia

CN(C)CCNC(=O)c1cccc2c1nc(-c1cccnc1)c1ccccc12
TGI (DMS 114 small cell lung): 18.8 µM
TGI (HOP-62 NSCLC): 22.3 µM
TGI (DMS 273 small cell lung): 14.2 µM
TGI (OVCAR-3 ovarian): 42 µM
TGI (UACC-62 melanoma): 15.2 µM
TGI (OVCAR-8 ovarian): 54.8 µM
TGI (CCRF-CEM leukemia): 43.5 µM
TGI (HCC-2998 colon): 20.2 µM
TGI (CAKI-1 renal): 85.7 µM
TGI (IGROV1 ovarian): 26.3 µM
TGI (RXF 393 renal): 17.1 µM
TGI (TK-10 renal): 9.74 µM
TGI (SNB-78 CNS): 26.3 µM
TGI (A498 renal): 15.7 µM
TGI (HOP-18 NSCLC): 64 µM
TGI (UACC-257 melanoma): 16.1 µM
TGI (EKVX NSCLC): 18.8 µM
TGI (SK-MEL-28 melanoma): 23.6 µM
TGI (UO-31 renal): 10.8 µM
TGI (SN12C renal): 35.4 µM
TGI (RXF-631 renal): 16.7 µM
TGI (NCI-H23 lung): 15.9 µM
TGI (K-562 leukemia): 65.4 µM
TGI (HCT-116 colon): 13.8 µM
TGI (A549 NSCLC): 18.3 µM
TGI (SF-295 CNS): 20.1 µM
TGI (MOLT-4 leukemia): 6.32 µM
TGI (COLO 205 colon): 16.4 µM
TGI (SK-OV-3 ovarian): 31.2 µM
TGI (SNB-19 CNS): 36.8 µM
TGI (786-0 renal): 24.6 µM
TGI (M19-MEL melanoma): 18.5 µM
TGI (HCT-15 colon): 20.1 µM
TGI (HOP-92 NSCLC): 19.1 µM
TGI (SF-539 CNS): 10.7 µM
TGI (LOX IMVI melanoma): 12.6 µM
TGI (SF-268 CNS): 22.2 µM
TGI (HL-60(TB) leukemia): 28.8 µM
TGI (KM12 colon): 46.5 µM
TGI (SK-MEL-2 melanoma): 22.8 µM
TGI (SNB-75 CNS): 22 µM
TGI (OVCAR-4 ovarian): 18.4 µM
TGI (OVCAR-5 ovarian): 34 µM
TGI (NCI-H460 lung): 12.5 µM
TGI (SW-620 colon): 25.3 µM
TGI (NCI-H226 lung): 16.5 µM
TGI (M14 melanoma): 19.9 µM
TGI (ACHN renal): 14.4 µM
TGI (SK-MEL-5 melanoma): 15.1 µM
TGI (HT29 colon): 26.9 µM
TGI (DLD-1 colon): 21.2 µM
TGI (U251 CNS): 24 µM

CCOC(=O)C1(C)CCC(C(=O)OC)C1=O (stereo not drawn)
TGI (DMS 114 small cell lung): 35.1 µM
TGI (HOP-62 NSCLC): > 100 µM
TGI (XF 498 CNS): > 100 µM
TGI (OVCAR-3 ovarian): > 100 µM
TGI (MALME-3M melanoma): > 100 µM
TGI (UACC-62 melanoma): > 100 µM
TGI (OVCAR-8 ovarian): > 100 µM
TGI (CCRF-CEM leukemia): 57.7 µM
TGI (HCC-2998 colon): > 100 µM
TGI (CAKI-1 renal): > 100 µM
TGI (IGROV1 ovarian): > 100 µM
TGI (LXFL 529 NSCLC): > 100 µM
TGI (RXF 393 renal): > 100 µM
TGI (TK-10 renal): > 100 µM
TGI (SNB-78 CNS): > 100 µM
TGI (A498 renal): > 100 µM
TGI (HOP-18 NSCLC): > 100 µM
TGI (UACC-257 melanoma): > 100 µM
TGI (EKVX NSCLC): > 100 µM
TGI (SK-MEL-28 melanoma): > 100 µM
TGI (UO-31 renal): > 100 µM
TGI (SN12C renal): > 100 µM
TGI (NCI-H23 lung): > 100 µM
TGI (K-562 leukemia): > 100 µM
TGI (HCT-116 colon): > 100 µM
TGI (A549 NSCLC): > 100 µM
TGI (SF-295 CNS): > 100 µM
TGI (MOLT-4 leukemia): > 100 µM
TGI (COLO 205 colon): > 100 µM
TGI (SK-OV-3 ovarian): > 100 µM
TGI (SNB-19 CNS): > 100 µM
TGI (786-0 renal): > 100 µM
TGI (KM20L2 colon): > 100 µM
TGI (NCI-H522 lung): 31.7 µM
TGI (M19-MEL melanoma): > 100 µM
TGI (HCT-15 colon): 43.1 µM
TGI (HOP-92 NSCLC): > 100 µM
TGI (SF-539 CNS): > 100 µM
TGI (LOX IMVI melanoma): 32.9 µM
TGI (SF-268 CNS): > 100 µM
TGI (RPMI-8226 leukemia): > 100 µM
TGI (HL-60(TB) leukemia): > 100 µM
TGI (KM12 colon): > 100 µM
TGI (SK-MEL-2 melanoma): > 100 µM
TGI (SR leukemia): 51 µM
TGI (SNB-75 CNS): > 100 µM
TGI (OVCAR-4 ovarian): > 100 µM
TGI (OVCAR-5 ovarian): > 100 µM
TGI (NCI-H460 lung): 28.6 µM
TGI (NCI-H226 lung): > 100 µM
TGI (M14 melanoma): > 100 µM
TGI (ACHN renal): > 100 µM
TGI (SK-MEL-5 melanoma): > 100 µM
TGI (HT29 colon): > 100 µM
TGI (DLD-1 colon): > 100 µM
TGI (U251 CNS): > 100 µM

From PubChem BioAssay (NCI)
